Read-outs that look alike come from different tables or passages of the source.

One experiment has as its target T1, A1 adenosine receptors (Rattus norvegicus, UniProt P25099).
T1 construct: from tissue
T1 sequence (P25099 1-326): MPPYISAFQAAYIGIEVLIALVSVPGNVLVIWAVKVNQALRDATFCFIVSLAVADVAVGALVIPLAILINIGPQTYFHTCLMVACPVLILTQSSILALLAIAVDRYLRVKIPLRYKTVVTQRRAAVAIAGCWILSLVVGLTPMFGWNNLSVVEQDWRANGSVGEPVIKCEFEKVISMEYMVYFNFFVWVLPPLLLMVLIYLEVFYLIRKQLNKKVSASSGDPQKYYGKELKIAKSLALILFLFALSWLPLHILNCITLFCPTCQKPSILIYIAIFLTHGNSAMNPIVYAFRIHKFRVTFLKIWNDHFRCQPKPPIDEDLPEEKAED
The experiment is described as follows: Displacement of specific [3H]R-PIA binding in rat brain membranes. Particulars: for Ki: [3H]R-PIA, rat brain membranes, n = 3-5, read-out: rA1 Ki ± S.E.M.; for rA1 percentage of specific binding displaced: Table 2; for rA1 percentage of specific binding displaced / inhibition at 100 µM: at 10^−4 M; for inhibition at 100 µM: read-out: rA1 % inhibition (percentage of specific binding displaced).

The next experiment concerns the target T2, human A3 receptors (Homo sapiens, UniProt P0DMS8).
T2 construct: expressed in transfected cells
T2 sequence (P0DMS8 1-318): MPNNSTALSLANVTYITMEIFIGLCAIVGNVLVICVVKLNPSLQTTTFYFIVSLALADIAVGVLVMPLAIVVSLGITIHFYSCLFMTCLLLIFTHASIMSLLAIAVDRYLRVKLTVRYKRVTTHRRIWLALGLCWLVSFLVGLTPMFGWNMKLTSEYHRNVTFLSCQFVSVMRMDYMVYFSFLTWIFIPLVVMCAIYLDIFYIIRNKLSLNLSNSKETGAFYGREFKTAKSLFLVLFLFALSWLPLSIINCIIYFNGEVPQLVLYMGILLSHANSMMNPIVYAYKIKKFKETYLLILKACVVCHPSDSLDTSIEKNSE
The experiment in a line: Displacement of specific [125I]AB-MECA binding at human A3 receptors expressed in HEK cells, in membranes. Particulars: for Ki: Table 2, compounds 33-58, [125I]AB-MECA, HEK cell membranes, n = 3-4, read-out: hA3 Ki ± S.E.M.; for rA1/hA3: ratio of affinities rat A1 vs human A3.

For the next experiment, the target named is T3, A2A adenosine receptors (Rattus norvegicus, UniProt P30543).
T3 construct: from tissue
T3 sequence (P30543 whole entry): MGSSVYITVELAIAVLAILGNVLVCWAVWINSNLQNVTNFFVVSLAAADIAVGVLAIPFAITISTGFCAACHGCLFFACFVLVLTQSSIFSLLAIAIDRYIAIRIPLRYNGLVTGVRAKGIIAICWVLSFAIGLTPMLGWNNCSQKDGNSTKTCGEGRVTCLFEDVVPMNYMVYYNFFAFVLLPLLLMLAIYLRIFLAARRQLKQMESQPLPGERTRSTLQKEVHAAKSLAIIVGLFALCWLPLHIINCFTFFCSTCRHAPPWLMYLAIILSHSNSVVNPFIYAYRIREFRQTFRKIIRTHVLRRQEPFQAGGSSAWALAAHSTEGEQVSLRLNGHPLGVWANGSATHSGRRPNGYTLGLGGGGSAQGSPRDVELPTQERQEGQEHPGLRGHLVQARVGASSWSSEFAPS
The experiment is described as follows: Displacement of specific [3H]CGS 21680 binding in rat striatal membranes. Particulars: for Ki: [3H]CGS 21680, rat striatal membranes, n = 3-6, read-out: rA2A Ki ± S.E.M.

The target of the next experiment is T4, rat A3 receptors (Rattus norvegicus, UniProt P28647).
T4 construct: expressed in transfected cells
T4 sequence (P28647 1-320): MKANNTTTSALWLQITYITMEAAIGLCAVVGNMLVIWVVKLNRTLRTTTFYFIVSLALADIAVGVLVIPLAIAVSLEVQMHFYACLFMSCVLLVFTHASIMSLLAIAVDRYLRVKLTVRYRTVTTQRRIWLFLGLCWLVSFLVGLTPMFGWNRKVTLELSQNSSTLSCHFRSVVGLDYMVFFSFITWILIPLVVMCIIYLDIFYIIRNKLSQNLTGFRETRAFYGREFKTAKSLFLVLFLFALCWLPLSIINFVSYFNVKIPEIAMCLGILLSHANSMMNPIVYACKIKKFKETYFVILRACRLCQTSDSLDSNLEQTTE
The experiment is described as follows: Displacement of specific [125I]AB-MECA binding at rat A3 receptors stably expressed in CHO cells. Particulars: Table 4.

Usually Ki stands for a measure of affinity in units of concentration, obtained from inhibition or displacement. As for `CCOC(=O)c1c(C)nc(C2CCCC2)c(C(=O)OCc2ccccc2)c1C#Cc1ccccc1` [Compound 45, 3-Ethyl 5-benzyl 2-methyl-4-phenylethynyl-6-cyclopentylpyridine-3,5-dicarboxylate], the inhibition constant Ki on A1 adenosine receptors (Table 2, compounds 33-58) came out at 56.2 ± 20.8 µM; at human A3 receptors it was 3.85 ± 0.79 µM; at A2A adenosine receptors (Table 2, compounds 33-58), 22.9 ± 5 µM. Moreover, the rA1/hA3 on human A3 receptors (Table 2) came to 15.

On to `CCOC(=O)C1=C(C)NC(c2ccccc2)=C(C(=O)OCC)C1CC` (racemic) [Compound 61, 3,5-Diethyl 2-methyl-4-ethyl-6-phenyl-1,4-(±)-dihydropyridine-3,5-dicarboxylate], for which the Ki on A2A adenosine receptors (Table 3) is 21.8 ± 7.8 µM.

Regarding `CCOC(=O)c1c(C)nc(-c2ccccc2)c(C(=O)OCC)c1C=Cc1ccccc1` [Compound 42], the Ki at A2A adenosine receptors (Table 2, compounds 33-58) was 2.4 ± 0.22 µM.

As to `CCOC(=O)c1c(-c2ccccc2)nc(C)c(C(=O)SCCOC)c1CC` [Compound 37, 5-Ethyl 2-methyl-4-ethyl-3-[2-methoxy-(ethylsulfanylcarbonyl)]-6-phenylpyridine-5-carboxylate], on A1 adenosine receptors, the “rA1 percentage of specific binding displaced” value is listed as 36 ± 11% (10^−4). Moreover, the Ki is 0.165 ± 0.012 µM at human A3 receptors and 7.98 ± 1.36 µM at A2A adenosine receptors (Table 2, compounds 33-58). Further, the rA1/hA3 at human A3 receptors (Table 2) is on record as above 500.

Regarding `CCCOC(=O)c1c(-c2ccccc2)nc(CC)c(C(=O)SCCOC2CCCCO2)c1CCC` (stereo not drawn) [Compound 13], the “rA1 percentage of specific binding displaced” value at A1 adenosine receptors is 18 ± 1% (10^−4). Further, on human A3 receptors (Table 2), the rA1/hA3 is recorded as above 20. Also, the “rA2A displacement of specific binding (class d)” value (“rA2A displacement” for short) at A2A adenosine receptors (Table 2, at 10^−4 M) is recorded as “d (10^−4) (Displacement of <10% of specific binding at the indicated concentration (M).)”.

Turning to `CCCOC(=O)C1=C(C)NC(c2ccccc2)=C(C(=O)OCC)C1C` (racemic) [Compound 60, 3-Propyl 5-ethyl 2,4-dimethyl-6-phenyl-1,4-(±)-dihydropyridine-3,5-dicarboxylate], the Ki amounted to 1.74 ± 3.1 µM on A1 adenosine receptors (Table 3) and 28.9 ± 4.8 µM at A2A adenosine receptors (Table 3).

Consider `CCOC(=O)c1c(-c2ccccc2)nc(CC)c2c1CCCNC2=O` [Compound 30], for which the “rA2A displacement” value at A2A adenosine receptors (Table 2, at 10^−4 M) is given as “d (10^−4) (Displacement of <10% of specific binding at the indicated concentration (M).)”.

In the case of `CCCOC(=O)c1c(-c2ccccc2)nc(CC)c(C(=O)SCCF)c1CCC` [Compound 15], on human A3 receptors (Table 2), the rA1/hA3 stood at 150.

Take `CCOC(=O)c1c(-c2ccccc2)nc(CCOC)c(C(=O)SCC)c1CC` [Compound 56, 5-Ethyl 2-(2-methoxylethyl)-4-ethyl-3-(ethylsulfanylcarbonyl)-6-phenylpyridine-5-carboxylate]: the Ki at A1 adenosine receptors (Table 2, compounds 33-58) turned out to be 10.1 ± 2.1 µM; on human A3 receptors, 0.0168 ± 0.002 µM; at A2A adenosine receptors (Table 2, compounds 33-58) it was 12.6 ± 1.7 µM. Also, the rA1/hA3 at human A3 receptors (Table 2) came to 600.

Consider `CCCCSC(=O)c1c(CC)nc(-c2cccc(Cl)c2)c(C(=O)OCCC)c1CC` [Compound 7], for which, on human A3 receptors (Table 2), the rA1/hA3 is 7400. Further, on A2A adenosine receptors (Table 2, at 10^−4 M), the “rA2A displacement” value is given as “d (10^−4) (Displacement of <10% of specific binding at the indicated concentration (M).)”.

In the case of `CCCOC(=O)c1c(-c2ccccc2)nc(CC)c(C(=O)SCCO)c1CCC` [Compound 12], on human A3 receptors (Table 2), the rA1/hA3 was determined as 210.

`CCCOC(=O)c1c(C)nc(-c2ccccc2)c(C(=O)OCC)c1C` [Compound 34, 3-Propyl 5-ethyl 2,4-dimethyl-6-phenylpyridine-3,5-dicarboxylate]: the Ki at A1 adenosine receptors (Table 2, compounds 33-58) worked out at 5.05 ± 0.54 µM; at human A3 receptors it was 0.215 ± 0.022 µM; on A2A adenosine receptors (Table 2, compounds 33-58) it was 24.5 ± 8.5 µM. Further, the rA1/hA3 on human A3 receptors (Table 2) worked out at 23.

For the molecule `CCCOC(=O)c1c(-c2ccc(F)cc2)nc(CC)c(C(=O)SCC)c1CCC` [Compound 27], the rA1/hA3 result at human A3 receptors (Table 2) is reported as “˜400”. Also, the “rA2A percentage of specific binding displaced” value at A2A adenosine receptors (Table 2, at 10^−4 M) is 50% (10^−4).

Consider `CCCc1c(C(=O)SCC)c(CC)nc(-c2ccccc2)c1C(=O)OCC(F)(F)C(F)(F)F` [Compound 24], for which the rA1/hA3 on human A3 receptors (Table 2) turned out to be 13.

Take `CCCc1c(C(=O)SCC)c(CC)nc(-c2ccccc2)c1C(=O)OCCCF` [Compound 23]: at human A3 receptors (Table 2), the rA1/hA3 is given as 630.

As for `CCOC(=O)c1c(C)nc(-c2ccccc2)c(C(=O)OCC)c1C` [Compound 33], the rA1/hA3 at human A3 receptors (Table 2) was 1.7.

`CCCOC(=O)c1c(-c2ccccc2)nc(CC)c(C(=O)SCC)c1CC` [Compound 6]: the rA1/hA3 on human A3 receptors (Table 2) is reported as 8.20. On A2A adenosine receptors (Table 2, at 10^−5 M), the “rA2A displacement” value is on record as “d (10^−5) (Displacement of <10% of specific binding at the indicated concentration (M).)”.

In general, inhibition refers to the percentage by which the read-out fell short of the control. For the molecule `CCOC(=O)C1=C(C)NC(C2CCCCC2)=C(C(=O)OCc2ccccc2)C1C#Cc1ccccc1` (racemic) [Compound 73, 3-Ethyl 5-benzyl 2-methyl-4-phenylethynyl-6-cyclohexyl-1,4-(±)-dihydropyridine-3,5-dicarboxylate], the inhibition at 100 µM on A1 adenosine receptors (Table 3) was found to be 22 ± 2%; at A2A adenosine receptors (Table 3, at 10^−4 M, read-out: rA2A % inhibition (percentage of specific binding displaced)), 20%.

`CCOC(=O)C1=C(C)NC(C2CCC2)=C(C(=O)OCc2ccccc2)C1C#Cc1ccccc1` (racemic) [Compound 71, 3-Ethyl 5-benzyl 2-methyl-4-phenylethynyl-6-cyclobutyl-1,4-(±)-dihydropyridine-3,5-dicarboxylate]: on A1 adenosine receptors (Table 3), the inhibition at 100 µM worked out at 36 ± 8%. Also, the “rA2A displacement” value on A2A adenosine receptors (Table 3, at 10^−4 M) is on record as “d (10^−4) (Displacement of < 10% of specific binding at the indicated concentration (M).)”.

For `CCCOC(=O)c1c(-c2ccccc2)nc(CC)c(C(=O)SCC(F)(F)F)c1CCC` [Compound 16], the rA1/hA3 on human A3 receptors (Table 2) is given as 460.

Take `CCOC(=O)C1=C(C)NC(C2CC2)=C(C(=O)OCc2ccccc2)C1C#Cc1ccccc1` (racemic) [Compound 70, 3-Ethyl 5-benzyl 2-methyl-4-phenylethynyl-6-cyclopropyl-1,4-(±)-dihydropyridine-3,5-dicarboxylate]: the inhibition at 100 µM at A1 adenosine receptors (Table 3) is 22 ± 1%. Moreover, at A2A adenosine receptors (Table 3, at 10^−4 M), the “rA2A displacement” value is on record as “d (10^−4) (Displacement of < 10% of specific binding at the indicated concentration (M).)”.

For the molecule `CCOC(=O)C1=C(CC)NC(c2ccccc2)=C(C(=O)OCC)C1C` (racemic) [Compound 74, 3,5-Diethyl 2-ethyl-6-phenyl-4-methyl-1,4-(±)-dihydropyridine-3,5-dicarboxylate], at A1 adenosine receptors (Table 3), the inhibition at 100 µM was determined as 20 ± 4%. Besides, the “rA2A displacement” value at A2A adenosine receptors (Table 3, at 10^−4 M) is on record as “d (10^−4) (Displacement of < 10% of specific binding at the indicated concentration (M).)”.

As for `CCOC(=O)c1c(-c2ccccc2)nc(CC)c(C(=O)SCC)c1CCCN1C(=O)c2ccccc2C1=O` [Compound 5], at human A3 receptors (Table 2, at 10^−6 M), the “hA3 percentage of specific binding displaced” value is on record as 28% (10^−6). In addition, the “rA2A displacement” value on A2A adenosine receptors (Table 2, at 10^−4 M) was “d (10^−4) (Displacement of <10% of specific binding at the indicated concentration (M).)”.

With `CCCOC(=O)c1c(-c2ccccc2F)nc(CC)c(C(=O)SCC)c1CCC` [Compound 25], the rA1/hA3 at human A3 receptors (Table 2) was 590.

With `CCCOC(=O)c1c(-c2ccccc2)nc(CC)c2c1CCOC2=O` [Compound 29], the “hA3 displacement of specific binding (class d)” value at human A3 receptors (Table 2, at 10^−4 M) was “d (10^−4) (Displacement of <10% of specific binding at the indicated concentration (M).)”.

As to `CCCOC(=O)c1c(-c2cccc(F)c2)nc(CC)c(C(=O)SCC)c1CCC` [Compound 26], the rA1/hA3 on human A3 receptors (Table 2) was 280.

Turning to `CCOC(=O)c1c(C)nc(-c2ccccc2)c(C(=O)OCC)c1C=O` [Compound 41, 3,5-Diethyl 2-methyl-4-formyl-6-phenylpyridine-3,5-dicarboxylate], the inhibition constant (Ki) on A1 adenosine receptors (Table 2, compounds 33-58) was 9.56 ± 4.09 µM; at A2A adenosine receptors (Table 2, compounds 33-58), 2.56 ± 0.13 µM.

Turning to `CCCOC(=O)c1c(-c2ccccc2)nc(CC)c(C(=O)SCC)c1CC` [Compound 49a, 5-Propyl 2,4-diethyl-3-(ethylsulfanylcarbonyl)-6-phenylpyridine-5-carboxylate], the inhibition constant Ki at A1 adenosine receptors (Table 2, compounds 33-58) came out at 7.77 ± 1.83 µM; at human A3 receptors, 0.00829 µM; on rat A3 receptors ([125I]AB-MECA, CHO cells, n = 3-5, read-out: rA3 Ki), 0.183 ± 0.033 µM. Moreover, the rA1/hA3 at human A3 receptors (Table 2) came to 940. Moreover, the rA3/hA3 on rat A3 receptors (ratio of affinities at rat vs. human A3 receptors) was found to be 22. Further, the rA1/rA3 on rat A3 receptors (ratio of affinities rat A1 vs rat A3) is recorded as 42.

The values are drawn from patent publication US6376521B1, “A3 adenosine receptor antagonists” (The United States of America as represented by the …, priority 1998, dated 2002).
